Data from patent publication US20120148677A1, “CONTROLLED RELEASE PARTICLES CONTAINING ACID FIBROBLAST GROWTH FACTOR” (Taipei Veterans General Hospital, priority 2010, published 2012).

What was measured:
PC-12 cells = assay: 6-OHDA neurotoxicity in PC-12 cells, MTT cell viability assay; assay type: cell-based
Description: The neurotoxicity was test by PC-12 cells which were rat pheochromocytoma cell line. The cells were supplied by the Bioresource Collection and Research Center, Food Industry Research and Development Institute, Hsinchu, Taiwan, and maintained in RPMI 1640 supplemented with 10% HBS, 5% FBS, 1% penicillin/streptomycin (Gibco) at 37° C. in a humidified atmosphere containing 5% CO2 and the culture medium was changed every 2 days.
6-hydroxydopamin (6-OHDA) is a neurotoxin, which leads to apoptosis of catecholaminergic cells. This pharmacological mechanism can be used to test neuron protecting efficiency of aimed drugs. The cells were seeded in 96 well plates at a density of 4×10^4 cells/well, which were pre-coated with collagen. Following 24 hrs of starvation, the medium was changed into 5% serum. The experimental groups were given different treatments and added with 6-OHDA (sigma) until reaching the concentration of 100 uM. The medium without 6-OHDA works as control. The relative number of viable cells was monitored by MTT assay.
MTT (3-(4,5-Dimethylthiazol-2-yl)-2,5-diphenyltetrazolium bromide) was a tetrazolium salt that can be reduced to purple-colored formazan by normal cell. The stock solution of MTT (5 mg/ml) was added into each well to make the medium of 0.5 mg/ml MTT and cells were incubated for 4 h. The supernatant was removed to obtain the MTT metabolic product, formazan, which was then dissolved in 120 ul DMSO (dimethylsulfoxide, sigma) and placed on a shaking table for 5 min until thoroughly dissolved. 100 ul of dissolved-formazan from each well was transferred into another plate to measure the absorbance with 560 nm at background 670 nm.
The dosage used was 100 uM, which caused about 40% apoptosis. […] The empty particles (without aFGF) and the particles entrapping an aFGF were soaked in culture medium for 2 days at 4° C. The supernatant was then collected and diluted at different concentrations for treatment of the 6-OHDA-damaged PC-12 cells.

trypsin = target: T1, trypsin (Bos taurus, UniProt P00760); assay: Proteolytic sensitivity to trypsin digestion, Western blot; assay type: in vitro ADME; conditions: after 5 min of digestion, aFGF:trypsin 1:400, PBS, 37° C.
T1 construct: purchased Sigma T1426
T1 sequence (P00760 24-246): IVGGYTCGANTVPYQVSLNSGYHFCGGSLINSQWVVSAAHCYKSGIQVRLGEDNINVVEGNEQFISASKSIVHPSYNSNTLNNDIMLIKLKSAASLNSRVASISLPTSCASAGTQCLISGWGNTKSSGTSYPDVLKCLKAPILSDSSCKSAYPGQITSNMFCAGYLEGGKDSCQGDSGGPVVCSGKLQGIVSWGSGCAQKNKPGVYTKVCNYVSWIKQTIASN
Description: In order to test how well of the particles can protect aFGF from an enzyme digestion, we mixed aFGF or the particles entrapping aFGF with a protein enzyme, trypsin. The aFGF and trypsin (Sigma, T1426) was mixed with the ratio of 1:400 in PBS bathed at 37° C. Ten microliters of product was taken out at various time intervals to mix with 10 ul of 2×SDS-sample buffer. The solution was then immediately being boiled for 5 mins to cease enzyme reaction.
As shown in the results, the binding of aFGF to heparin increased the stability to overcome the challenge in vivo. To simulate physiological environment, the experiment was held at 37° C. The intact aFGF and aFGF in the particles of the invention were digested by Trypsin respectively, and aFGF antibody was used to detect the remaining aFGF. With the increase in time of enzyme digestion, the amount of aFGF decreases.

Compound	apoptosis (PC-12 cells; 100 uM 6-OHDA, PC-12 cells)	EC50 (PC-12 cells; Rattus norvegicus, PC-12, read-out: ED50 (neurotoxicity))	survival rate (PC-12 cells; 10 pg/ml aFGF, 100 uM 6-OHDA, PC-12 cells)	survival rate (PC-12 cells; 10 ng/ml aFGF, 100 uM 6-OHDA, PC-12 cells)	effect on PC-12 death (PC-12 cells; 6-OHDA-treated PC-12 cells, FIG. 5)	remaining aFGF band after trypsin digestion (trypsin)
NCCc1cc(O)c(O)cc1O [6-OHDA, 6-hydroxydopamin, reference compound]	about 40%	~125 µM	–	–	–	–
acid fibroblast growth factor [aFGF]	–	–	more than 72.63%	88.41%	significantly blocks PC-12 death	almost disappeared
